One data set relates to CYP1A1 enzyme. The data set is described as follows: Induction of CYP1A1 enzyme in human cultured sebocytes, EROD assay. The conditions noted are these: 10 uM, 24 h. In kind it is cell-based. The method, then: (§1) Cells are seeded at between 1×10^4 and 2.5×10^4 cells/well in a 96-well microtitre plate. […] 100 μl of medium is then transferred to a fresh black 96-well plate and 130 μl methanol added. The formation of resorufin is quantified by fluorometry with a fluorescence plate reader. Fluorescence is determined at λex 570 nm and λem 590 nm. The amount of resorufin is calculated from a standard curve generated using 0 to 1 μM resorufin in water at ½ log dilutions. The remaining (i.e. all cells present at the beginning of analysis, since only supernatant is taken to assay EROD) live cells are subsequently utilized for the MU cytotoxicity assay. MU is made up in serum-free medium at 5 mg/mi. then added to the cells giving a final concentration of 10% (0.5 mg/ml MIT final) then incubated for 2 h. The medium is carefully removed, then MIT formazan is solubilized by adding 200 μl of DMSO and subsequently mixed on a plate shaker. The absorbance is measured spectrophotometrically at 550 nm and background absorbance at […] is subtracted. A standard curve generated using MTT formazan (dissolved in DMSO) from O—200 μM (0, 2, 5, 10, 20, 50, 100, 200 μM) is used to calculate the final experimental values which are then expressed as (μmol resorufin/mol MTT formazan) or as fold-induction compared to solvent.

A further data set has as its system CYP1A1. The description is as above. In kind it is cell-based. Conditions: cultured sebocytes, probe 7-ethoxyresorufin (8 μM). The procedure: as §1

Take `O=c1cc(-c2ccccc2)oc2ccc3ccccc3c12` [D, 3-Phenyl-1H-benzo[f]chromen-1-one, reference compound]: the “% change vs. TCDD EROD (Sebs) at 10 uM” value in the data set with CYP1A1 enzyme is given as 17%. For the same compound, a half-maximal response with CYP1A1 (EC50 at 24 h) required 1 µM.

In general, EC50 refers to the concentration giving half of the maximal effect. Low values mean an effect from little substance, high ones a need for much substance.

For the origin of these results see patent publication US20180118707A1, “BETA-NAPHTHOISOFLAVONES, COMPOSITIONS CONTAINING, AND USES OF, SAME” (Thesan Pharmaceuticals, Inc., priority 2015, published 2018).
